molecular target: Bek (Homo sapiens, UniProt P21802); test: Inhibitory activity against Bek-autophosphorylation using ELISA method in OCUM-2MD3 cells; type: cell-based; conditions: 1 hr with compound, read-out: IC50 (concentration necessary for inhibiting 50% of Bek-phosphorylation)
Method in brief: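 Sandwich ELISA (anti-phosphotyrosine capture, anti-Bek detection, peroxidase, 450 nm) measured Bek autophosphorylation in OCUM-2MD3 lysates after 1 hr compound treatment at 37° C in 0.1% serum medium. IC50 derived by scaling between no-drug (100%) and excess positive control at 1000 nM (0%).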

Chain of Bek (P21802 431-767 limits assumed): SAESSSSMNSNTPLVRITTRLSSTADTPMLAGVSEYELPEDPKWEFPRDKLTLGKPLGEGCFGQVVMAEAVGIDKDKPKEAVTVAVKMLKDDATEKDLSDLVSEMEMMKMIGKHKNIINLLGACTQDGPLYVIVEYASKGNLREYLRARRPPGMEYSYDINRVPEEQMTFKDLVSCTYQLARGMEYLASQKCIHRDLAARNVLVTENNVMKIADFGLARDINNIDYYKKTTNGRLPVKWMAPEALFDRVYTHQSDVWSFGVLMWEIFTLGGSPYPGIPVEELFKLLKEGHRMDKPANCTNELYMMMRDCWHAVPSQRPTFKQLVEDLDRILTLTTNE

Row | IC50 [nM] | Structure (SMILES)
1 | 895 | COc1cc2c(Oc3ccc(Nc4ccc(C(C)(C)C)cc4)cc3)ccnc2cc1OCCN1CC(C)CC(C)C1 (centres unmarked) [Compound 239, (4-Tert-butyl-phenyl)-(4-{7-[2-(3,5-dimethyl-piperidin-1-yl)-ethoxy]-6-methoxy-quinolin-4-yloxy}-phenyl)-amine]
2 | 401 | COc1cc2c(Oc3ccc(Nc4ccc(C(C)(C)C)cc4)cc3)ccnc2cc1OCCN1CCC(N2CCCCC2)CC1 [Compound 242, {4-[7-(2-[1,4′]Bipiperidineyl-1′-yl-ethoxy)-6-methoxy-quinolin-4-yloxy]-phenyl}-(4-tert-butyl-phenyl)-amine]
3 | 342 | COc1cc2c(Oc3ccc(Nc4ccc(C(C)(C)C)cc4)cc3)ccnc2cc1OCCN1CCC(N2CCCC2)CC1 [Compound 243, (4-Tert-butyl-phenyl)-(4-{6-methoxy-7-[2-(4-pyrrolidin-1-yl-piperidin-1-yl)-ethoxy]-quinolin-4-yloxy}-phenyl)-amine]
4 | < 10 | COc1cc2c(Oc3ccc(NC(=O)NCCC(C)(C)C)cc3)ccnc2cc1OCCCN1CC(C)OC(C)C1 (centres unmarked) [Compound 244, 1-(3,3-Dimethyl-butyl)-3-(4-{7-[3-(2,6-dimethyl-morpholin-4-yl)-propoxy]-6-methoxy-quinolin-4-yloxy}-phenyl)-urea]
5 | 16.5 | COc1cc2c(Oc3ccc(NC(=O)NCCC(C)(C)C)cc3)ccnc2cc1OCCCN1CC(C)CC(C)C1 (centres unmarked) [Compound 245, 1-(3,3-Dimethyl-butyl)-3-(4-{7-[3-(3,5-dimethyl-piperidin-1-yl)-propoxy]-6-methoxy-quinolin-4-yloxy}-phenyl)-urea]
6 | 30.9 | COc1cc2c(Oc3ccc(NC(=O)NCCC(C)(C)C)cc3)ccnc2cc1OCCCN1CCC(c2ccccc2)CC1 [Compound 246, 1-(3,3-Dimethyl-butyl)-3-(4-{6-methoxy-7-[3-(4-phenyl-piperidin-1-yl)-propoxy]-quinolin-4-yloxy}-phenyl)-urea]
7 | 81.9 | COc1cc2c(Oc3ccc(NC(=O)NCCC(C)(C)C)cc3)ccnc2cc1OCCCN1CCC(Cc2ccccc2)CC1 [Compound 247, 1-(4-{7-[3-(4-Benzyl-piperidin-1-yl)-propoxy]-6-methoxy-quinolin-4-yloxy}-phenyl)-3-(3,3-dimethyl-butyl)-urea]
8 | 12.6 | COc1cc2c(Oc3ccc(NC(=O)NCCC(C)(C)C)cc3)ccnc2cc1OCCCN1CCC(N2CCCCC2)CC1 [Compound 248, 1-{4-[7-(3-[1,4′]Bipiperidinyl-1′-yl-propoxy)-6-methoxy-quinolin-4-yloxy]-phenyl}-3-(3,3-dimethyl-butyl)-urea]
9 | < 10 | COc1cc2c(Oc3ccc(NC(=O)NCCC(C)(C)C)cc3)ccnc2cc1OCCCN1CCC(N2CCCC2)CC1 [Compound 249, 1-(3,3-Dimethyl-butyl)-3-(4-{6-methoxy-7-[3-(4-pyrrolidin-1-yl-piperidin-1-yl)-propoxy]-quinolin-4-yloxy}-phenyl)-urea]
10 | < 10 | COc1cc2c(Oc3ccc(NC(=O)NCCC(C)(C)C)cc3)ccnc2cc1OCC(O)CN1CC(C)OC(C)C1 (centres unmarked) [Compound 250, 1-(3,3-Dimethyl-butyl)-3-(4-{7-[3-(2,6-dimethyl-morpholin-4-yl)-2-hydroxy-propoxy]-6-methoxy-quinolin-4-yloxy}-phenyl)-urea]
11 | 20.7 | COc1cc2c(Oc3ccc(NC(=O)NCCC(C)(C)C)cc3)ccnc2cc1OCC(O)CN1CC(C)CC(C)C1 (centres unmarked) [Compound 251, 1-(3,3-Dimethyl-butyl)-3-(4-{7-[3-(3,5-dimethyl-piperidin-1-yl)-2-hydroxy-propoxy]-6-methoxy-quinolin-4-yloxy}-phenyl)-urea]
12 | 42.6 | COc1cc2c(Oc3ccc(NC(=O)NCCC(C)(C)C)cc3)ccnc2cc1OCC(O)CN1CCC(c2ccccc2)CC1 (centres unmarked) [Compound 252, 1-(3,3-Dimethyl-butyl)-3-(4-{7-[2-hydroxy-3-(4-phenyl-piperidin-1-yl)-propoxy]-6-methoxy-quinolin-4-yloxy}-phenyl)-urea]
13 | 28.5 | COc1cc2c(Oc3ccc(Nc4ccc(C(C)(C)C)cc4)cc3)ccnc2cc1OCC(O)CN1CC(C)OC(C)C1 (centres unmarked) [Compound 253, 1-{4-[4-(4-Tert-butyl-phenylamino)-phenoxy]-6-methoxy-quinolin-7-yloxy}-3-(2,6-dimethyl-morpholin-4-yl)-propan-2-ol]
14 | 94.2 | COc1cc2c(Oc3ccc(Nc4ccc(C(C)(C)C)cc4)cc3)ccnc2cc1OCC(O)CN1CC(C)CC(C)C1 (centres unmarked) [Compound 254, 1-{4-[4-(4-Tert-butyl-phenylamino)-phenoxy]-6-methoxy-quinolin-7-yloxy}-3-(3,5-dimethyl-piperidin-1-yl)-propan-2-ol]
15 | 110 | COc1cc2c(Oc3ccc(Nc4ccc(C(C)(C)C)cc4)cc3)ccnc2cc1OCC(O)CN1CCC(N2CCCCC2)CC1 (centres unmarked) [Compound 258, 1-[1,4′]Bipiperidineyl-1′-yl-3-{4-[4-(4-tert-butyl-phenylamino)-phenoxy]-6-methoxy-quinolin-7-yloxy}-propan-2-ol]

More lines, now with the values behind:

Row | Structure (SMILES) | IC50 [nM]
16 | COc1cc2c(Oc3ccc(NC(=O)NCCC(C)(C)C)cc3)ccnc2cc1OCCCN1CCC(CCO)CC1 [Compound 220, 1-(3,3-Dimethyl-butyl)-3-[4-(7-{3-[4-(2-hydroxy-ethyl)-piperidin-1-yl]-propoxy}-6-methoxy-quinolin-4-yloxy)-phenyl]-urea] | 12
17 | COc1cc2c(Oc3ccc(NC(=O)NCCC(C)(C)C)cc3)ccnc2cc1OCC(=O)O [Compound 221, (4-{4-[3-(3,3-Dimethyl-butyl)-ureido]-phenoxy}-6-methoxy-quinolin-7-yloxy)-acetic acid] | 762
18 | COc1cc2nccc(Oc3ccc(NC(=O)NCCC(C)(C)C)cc3)c2cc1OCCN(C)C [Compound 222, 1-{4-[6-(2-Dimethylamino-ethoxy)-7-methoxy-quinolin-4-yloxy]-phenyl}-3-(3,3-dimethyl-butyl)-urea] | 24.3
19 | COc1cc2nccc(Oc3ccc(NC(=O)NCCC(C)(C)C)cc3)c2cc1OCCCN1CCOCC1 [Compound 223, 1-(3,3-Dimethyl-butyl)-3-{4-[7-methoxy-6-(3-morpholin-4-yl-propoxy)-quinolin-4-yloxy]-phenyl}-urea] | 49.8
20 | COc1cc2nccc(Oc3ccc(NC(=O)NCCC(C)(C)C)cc3)c2cc1OCCCN(C)C [Compound 224, 1-{4-[6-(3-Dimethylamino-propoxy)-7-methoxy-quinolin-4-yloxy]-phenyl}-3-(3,3-dimethyl-butyl)-urea] | 70.4
21 | COc1cc2nccc(Oc3ccc(NC(=O)NCCC(C)(C)C)cc3)c2cc1OCC(O)CN1CCOCC1 (centres unmarked) [Compound 225, 1-(3,3-Dimethyl-butyl)-3-{4-[6-(2-hydroxy-3-morpholin-4-yl-propoxy)-7-methoxy-quinolin-4-yloxy]-phenyl}-urea] | 19.9
22 | COc1cc2nccc(Oc3ccc(NC(=O)NCCC(C)(C)C)cc3)c2cc1OCC(O)CN(C)C (centres unmarked) [Compound 226, 1-{4-[6-(3-Dimethylamino-2-hydroxy-propoxy)-7-methoxy-quinolin-4-yloxy]-phenyl}-3-(3,3-dimethyl-butyl)-urea] | 27.9
23 | COc1cc2nccc(Oc3ccc(NC(=O)NCCC(C)(C)C)cc3)c2cc1OCCCCN1CCOCC1 [Compound 227, 1-(3,3-Dimethyl-butyl)-3-{4-[7-methoxy-6-(4-morpholin-4-yl-butoxy)-quinolin-4-yloxy]-phenyl}-urea] | 23.9
24 | COc1cc2nccc(Oc3ccc(NC(=O)NCCC(C)(C)C)cc3)c2cc1OCCCCN(C)C [Compound 228, 1-{4-[6-(4-Dimethylamino-butoxy)-7-methoxy-quinolin-4-yloxy]-phenyl}-3-(3,3-dimethyl-butyl)-urea] | 38.5
25 | COc1cc2c(Oc3ccc(Nc4ccc(C(C)C)cc4)cc3)ccnc2cc1OCC(=O)N1CCOCC1 [Compound 229, 2-{4-[4-(4-Isopropyl-phenylamino)-phenoxy]-6-methoxy-quinolin-7-yloxy}-1-morpholin-4-yl-ethanone] | 156
26 | COc1cc2c(Oc3ccc(NC(=O)NCCC(C)(C)C)c(F)c3)ccnc2cc1OC(=O)N1CCC(N2CCCCC2)CC1 [Compound 230, 4-{4-[3-(3,3-Dimethyl-butyl)-ureido]-3-fluoro-phenoxy}-6-methoxy-quinolin-7-yl [1,4′]bipiperidineyl-1′-carboxylate] | 32.1
27 | COc1cc2nccc(Oc3ccc(NC(=O)NCCC(C)(C)C)cc3F)c2cc1OCCCN1CC(C)OC(C)C1 (centres unmarked) [Compound 231, 1-(3,3-Dimethyl-butyl)-3-(4-{6-[3-(2,6-dimethyl-morpholin-4-yl)-propoxy]-7-methoxy-quinolin-4-yloxy}-3-fluoro-phenyl)-urea] | 113
28 | COc1cc2c(Oc3ccc(Nc4ccc(C(C)(C)C)cc4)cc3)ccnc2cc1OCCCN1CC(C)OC(C)C1 (centres unmarked) [Compound 232, (4-Tert-butyl-phenyl)-(4-{7-[3-(2,6-dimethyl-morpholin-4-yl)-propoxy]-6-methoxy-quinolin-4-yloxy}-phenyl)-amine] | 103
29 | COc1cc2c(Oc3ccc(Nc4ccc(C(C)(C)C)cc4)cc3)ccnc2cc1OCCCN1CC(C)CC(C)C1 (centres unmarked) [Compound 233, (4-Tert-butyl-phenyl)-(4-{7-[3-(3,5-dimethyl-piperidin-1-yl)-propoxy]-6-methoxy-quinolin-4-yloxy}-phenyl)-amine] | 371
30 | COc1cc2c(Oc3ccc(Nc4ccc(C(C)(C)C)cc4)cc3)ccnc2cc1OCCCN1CCC(N2CCCCC2)CC1 [Compound 236, {4-[7-(3-[1,4′]Bipiperidineyl-1 ′-yl-propoxy)-6-methoxy-quinolin-4-yloxy]-phenyl}-(4-tert-butyl-phenyl)-amine] | 269
31 | COc1cc2c(Oc3ccc(Nc4ccc(C(C)(C)C)cc4)cc3)ccnc2cc1OCCCN1CCC(N2CCCC2)CC1 [Compound 237, (4-Tert-butyl-phenyl)-(4-{6-methoxy-7-[3-(4-pyrrolidin-1-yl-piperidin-1-yl)-propoxy]-quinolin-4-yloxy}-phenyl)-amine] | 207
32 | COc1cc2c(Oc3ccc(Nc4ccc(C(C)(C)C)cc4)cc3)ccnc2cc1OCCN1CC(C)OC(C)C1 (centres unmarked) [Compound 238, (4-Tert-butyl-phenyl)-(4-{7-[2-(2,6-dimethyl-morpholin-4-yl)-ethoxy]-6-methoxy-quinolin-4-yloxy}-phenyl)-amine] | 47.2
